Like-named read-outs stand apart in the source and are kept apart here. Each block holds one compound with its values, some of them ahead of it.
Assays:
PKC [1] = conditions: read-out: affinity for PKC, ECS50; cited from earlier work
PKC [2] = assay: PKC activity time course in rat H19-7/IGF-IR hippocampal cells; type: cell-based
Procedure: (§1) Cell culture. Rat hippocampal H19-71GF-IR cells (ATCC, Manassas, Va.) were plated onto poly-L-lysine coated plates and grown at 35° C. in DMEM/10% FCS for several days until about 50% coverage was obtained. The cells were then induced to differentiate into a neuronal phenotype by replacing the medium with 5 ml N2 medium containing 10 ng/ml basic fibroblast growth factor at 39° C. and grown in T-75 flasks at 37° C. Human SH-SY5Y neuroblastoma cells (ATCC) were cultured in 45% F12K/45% MEM/10% FCS. Mouse N2A neuroblastoma cells were cultured in DMEM/10% FCS without glutamine. Rat hippocampal neurons from 18-day-old embryonic
(§2) Protein kinase C assay. Rat hippocampal cells were cultured and scraped in 0.2 ml homogenization buffer (20 triM Tris-HCl, pH 7.4, 50 mM NaF, 1 μg/ml leupeptin, and 0.1 mM PMSF) and homogenized by sonication in a Marsonix micro-probe sonicator (5 see, 10W). To measure PKC, 10 ul of cell homogenate or purified. PKC isozyme (purchased from Calbiochem) was incubated for 15 min at 37° C. in the presence of 10 μM histones, 4.89 mM CaCl2, 1.2 μg/μl phosphatidyl-L-serine, 0.18 μg/μl 1,2-dioctanoyl-sn-glycerol, 10 mM MgCl2, 20 mM HEPES (pH 7.4), 0.8 mM EDTA, 4 mM EGTA, 4% glycerol, 8 μg/ml aprotinin, 8 μg/ml leupeptin, and 2 mM benzamidine. 0.5 μCi [^γ-32P]ATP was added and ^32P-phosphoprotein formation was measured by adsorption onto phosphocellulose as described previously. Nelson and Alkon, J. Neurochemistry. 1995; 65: 2350-57. For measurements of activation by BR-101 (DCP-LA) and similar compounds, PKC activity was measured in the absence of diacylglycerol and phosphatidyl serine, as described by Kanno et al., and PKC δ, ε, η, and μ were measured in the absence of added EGTA and CaCl2, as described by Kanno et al., J. Lipid Res. 2006; 47: 1146-50. Low concentrations of Ca^2+ are used because high Ca^2+ interacts with the PKC phosphatidylserine binding site and prevents activation. For measurements of bryostatin activation, 1,2-diacylglycerol was omitted unless otherwise stated.

PKCε = biological target: T1, PKCε (Homo sapiens, UniProt Q02156); assay: Protein kinase C assay, purified/recombinant PKC epsilon (32P incorporation into histones); type: biochemical; conditions: for activation of purified PKCε / concentration needed to activate PKC, times lower than for BR-101 (DCP-LA): FIG. 3
T1 construct: purchased Calbiochem
T1 sequence (Q02156 1-737): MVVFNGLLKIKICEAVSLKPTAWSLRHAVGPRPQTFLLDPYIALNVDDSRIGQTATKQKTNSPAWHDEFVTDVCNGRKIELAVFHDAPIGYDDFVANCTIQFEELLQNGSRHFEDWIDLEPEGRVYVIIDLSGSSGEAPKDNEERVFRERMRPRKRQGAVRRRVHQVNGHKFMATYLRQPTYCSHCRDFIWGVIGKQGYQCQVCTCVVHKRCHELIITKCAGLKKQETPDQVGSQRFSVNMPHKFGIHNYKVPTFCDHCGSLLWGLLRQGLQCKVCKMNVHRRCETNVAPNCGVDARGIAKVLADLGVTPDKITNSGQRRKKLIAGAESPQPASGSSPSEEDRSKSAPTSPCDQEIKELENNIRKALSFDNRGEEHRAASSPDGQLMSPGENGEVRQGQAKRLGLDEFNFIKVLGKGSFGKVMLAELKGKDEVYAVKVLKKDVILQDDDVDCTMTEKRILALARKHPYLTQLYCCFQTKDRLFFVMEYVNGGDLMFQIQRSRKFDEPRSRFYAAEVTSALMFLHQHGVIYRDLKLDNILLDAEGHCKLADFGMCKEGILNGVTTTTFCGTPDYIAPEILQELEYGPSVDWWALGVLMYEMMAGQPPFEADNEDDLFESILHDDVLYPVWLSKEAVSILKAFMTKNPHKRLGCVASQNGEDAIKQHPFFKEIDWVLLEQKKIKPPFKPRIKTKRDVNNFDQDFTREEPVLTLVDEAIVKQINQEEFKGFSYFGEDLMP
Procedure: Protein kinase C assay. Recombinant PKC (1 ng of alpha or epsilon isofonn) was mixed with the BR-101 (UCP-LA) in the presence of 10 micromoiar histones, 5 mM CaCl2, 1.2 μg/μl phosphatidyl-L-serine, 0.18 μg/μl 1,2-dioctanoyl-sn-glycerol (DAG), […], […] (pH 7.4), 0.8 tnIVI EDTA, 4 mM EGTA, 4% glycerol, 8 μg/ml aprotinin, 8 μ/ml leupeptin, and 2 mM benzamidine. 0.5 micro Ci [^y32P]ATP was added. The incubation mixture was incubated for 15 min at 37 degrees in a total volume of 10 microliters. The reaction was stopped by spotting the reaction mixtures on 1×2 cm strips of cellulose phosphate paper (Whatman P81) and immediately washing twice for 1 hr in 0.5% H3PO4. The cellulose phosphate strips were counted in a scintillation counter. In some experiments, phosphatidylserine, diacylglycerol, and/or calcium were removed.
as §2
To determine their PKC isozyme specificity, the new compounds were preincubated with purified PKC for five minutes and the PKC activity was measured radiometrically.

Aβ = Aβ levels in N2a neuroblastoma cells transfected with human APPSwe/PSID (Aβ1-42 ELISA); type: cell-based, mouse; conditions: 24 h incubation, various concentrations
Procedure: as §1
(§3) AB Measurement and Cell Viability Assay. Aβ was measured using an Aβ1-42 human fluorimetric ELISA kit (Invitrogen) according to the manufacturer's instructions. Results were measured in a Biotek Synergy HT microplate reader. AlamarBlue and CyQuant NF (Invitrogen) according to the manufacturer's instructions.
To measure the effects of PKCε activation on Aβ production, we used mouse neuro2a (N2a) neuroblastoma cells transfected with human APPSwe/PSID, which produce large quantities of Aβ. Petanceska et al., J Neurochem. 1996; 74: 1878-84. […] With bryostatin, which activates PKC by binding to the diacylglycerol-binding site, the inhibition was biphasic, with concentrations of 20 nM or higher producing no net effect. This may be explained by the ability of this class of PKC activators to downregulate PKC when used at high concentrations.

[3] = system: Endothelin-converting enzyme (ECE); assay: ECE assay in SH-SY5Y neuroblastoma cells; type: cell-based, human; conditions: bryostatin 0.27 nM, BR-101 1 μM, BR-111 1 μM; FIG. 10
Procedure: ECE assay. SH-S757 neuroblastoma cells were incubated with bryostatin (0.27 nM), BR-101 (PCP-LA) (1 μM), and BR-111 (DHA-CP6) (1 μM). Endothelin-converting enzyme (ECE) was measured fluorimetrically using the method of Johnson and Ahn, Anal. Biochem. 2000; 286: 112-118. A sample of cell homogenate (20 μl) was incubated in 50 mM MES-KOH, pH 6.0, 0.01% C12E10 (polyoxyethylene-10-tauryl ether), and 15 μM McaBK2. (7-Methoxycournarin-4-acetyl [Ala7-(2,4-Dinitrophenyl)Lys9]-bradykinin trifluoroacetate salt) (Sigma-Aldrich). After 60 min at 37° C., the reaction was quenched by adding trifluoroacetic acid to 0.5%. The sample was diluted to 1.4 ml with water and the fluorescence was measured at ex=334 nm, em=398 nm.

a-secretase = conditions: human fibroblasts, cited from earlier work
TACE [4] = assay: TACE assay in N2a mouse neuroblastoma cells; type: cell-based; conditions: FIG. 9a
Procedure: (§4) TACE Assay. TACE was measured by incubating 5 μl cell homogenate, 3 μl buffer (50 mM Tris-HCl 7.4 plus 25 mM NaCl plus 4% glycerol), and 1 of 100 μM TACE substrate IV (Aβz-LAQAVRSSSR-DPa) (Calbiochem) for 20 min at 37° in 1.5-ml polypropylene centrifuge tubes (Jin et al., Anal Biochem. 2002; 302: 269-75). The reaction was stopped by cooling to 4° C. The samples were diluted to 1 ml and the fluorescence was rapidly measured (ex=320 nm, em=420 nm) in a Spex Fluorolog 2 spectrofluorometer.

TACE [5] = assay: TACE assay in rat primary neurons; type: cell-based; conditions: primary neurons from rat hippocampus; FIGS. 9b, c
Procedure: as §4

rats = conditions: cited from earlier work
[6] = system: SH-SY5Y neuroblastoma cells; assay: Cell survival and proliferation (alamar Blue, CyQuant) in SH-SY5Y neuroblastoma cells; type: cell-based, human; conditions: alamar Blue; FIG. 11a
Procedure: as §3

Compound: CCCCCCCCCCCCCC(=O)O[C@@H]1[C@@H](C)[C@@]2(O)[C@@H](C=C(CO)C[C@]3(O)C(=O)C(C)=C[C@@H]23)[C@@H]2C(C)(C)[C@]12OC(C)=O [phorbol 12-myristate 13-acetate]
EC50 (PKC [1]): […] | PKC activity (downregulation) at 8 h (PKC [2]; data not shown): strongly downregulated

Compound: CCC1CC1CC1CC1CC1CC1CCCCCCCCO (stereo not drawn) [BR-104, linolenic alcohol tricyclopropane]
effect on PKC (PKCε; FIG. 4): little or no effect

Compound: CCC/C=C/C=C/C(=O)O[C@H]1/C(=C/C(=O)OC)C[C@H]2C[C@H]([C@@H](C)O)OC(=O)C[C@H](O)C[C@@H]3C[C@H](OC(C)=O)C(C)(C)[C@](O)(C[C@@H]4C/C(=C/C(=O)OC)C[C@H](/C=C/C(C)(C)[C@]1(O)O2)O4)O3 [bryostatin]
levels of intracellular Aβ (Aβ; FIG. 7a): markedly reduced | levels of secreted Aβ (Aβ; FIG. 7b): markedly reduced | ECE activity [3]: sustained increase | increase in initial rate of a-secretase activity (a-secretase; 10 pM): 16 fold | increase in initial rate of a-secretase activity (a-secretase; 100 pM): 132 fold | TACE activity (TACE [4]): small increases | TACE activity (TACE [5]): small increases | rate of learning (rats): dramatically increase the rate of learning | effect on cell survival [6]: no effect | downregulation of PKC following activation (PKC [2]; 0.04 nM and 0.2 nM): 20% | time by which PKC downregulation returned to baseline (PKC [2]; 0.04 nM and 0.2 nM): ≤ 24 h | activation of PKC (PKC [2]; 0.04 nM and 0.2 nM, data not shown): 2 fold | PKC activity (downregulation) at 8 h (PKC [2]; data not shown): at or near the baseline

Compound: CCCCCC1OC1C/C=C\CCCCCCCC(=O)OC (stereo in doubt) [BR-117, vernolic acid methyl ester]
effect on PKC (PKCε; FIG. 4): little or no effect

Second part, led by results:

effect on PKCε (PKCε; at concentrations above 1 μM, FIG. 4): inhibited
Compound: CCCCC[C@H]1O[C@H]1CC1CC1CCCCCCCC(=O)OC (stereo partly drawn) [BR-109, vernolic acid methyl ester cyclopropane]

effect on PKC (PKCε; FIG. 4): little or no effect
Compound: epoxystearic acid [BR-116]

concentration needed to activate PKC, times lower than for BR-101 (DCP-LA) (PKCε): approx. 100 times
Compound: CCC1CC1CC1CC1CC1CC1CC1CC1CC1CC1CCCC(=O)OC (stereo not drawn) [BR-114]
activation of purified PKCε (PKCε): activated purified PKCε to a similar extent

concentration needed to activate PKC, times lower than for BR-101 (DCP-LA) (PKCε): approx. 100 times
Compound: CCCCCC1CC1CC1CC1CC1CC1CC1CC1CCCC(=O)OC (stereo not drawn) [BR-115]
activation of purified PKCε (PKCε): activated purified PKCε to a similar extent

effect on PKC (PKCε; FIG. 4): little or no effect
Compound: CCCCCC1CC1CC1CC1CCCCCCCCO (stereo not drawn) [BR-105, linoleic alcohol dicyclopropane]

From patent US11820745B2, “PKC-activating compounds for the treatment of neurodegenerative diseases” (Synaptogenix, Inc., priority 2008, dated 2023)
